These results are taken from patent publication US20220144853A1, “IMIDAZOLINE DERIVATIVES AS CXCR4 MODULATORS” (Université de Paris, priority 2019, published 2022).

Where a name gives a salt, the structure may show the parent alone.

The assay concerns IFN production by activated PBMCs. The assay can be described thus: IFN production by R848-activated PBMCs from healthy donors, twINNE reporter cell line. In kind it is cell-based, human. The note with it: Homo sapiens, PBMC, means of two results over 2 healthy donors, R848 5 μg/mL, IT1t: mean over all experiments, read-out: IC50 of anti-inflammatory activity (IFN production). As to the method:
2) The blood from healthy donors was also obtained from “Etablissement Français du Sang” (convention #19/EFS/029), Paris, France.
In vitro experiments were performed using human peripheral blood mononuclear cells (PBMCs) isolated by density centrifugation from peripheral blood leukocyte separation medium, lymphoprep (Stemcell Technologies).
PBMCs were cultured in RPMI 1640 (Sigma-Aldrich, MO, USA) containing 10% heat-inactivated fetal bovine serum (Sigma-Aldrich, MO, USA) at 37° C./5% CO2.
2) The PBMCs used herein were prepared as described in part A “immune cells preparation”, section 2) above. PBMCs were seeded at 4.10^6/mL. […] Cells were then stimulated with the TLR7/8 agonist resiquimod—R848 (Sigma-Aldrich, MO, USA) at 5 μg/mL.
2) To quantify the secretion of functional IFN, a biological assay based on a stable cell line where luciferase reporter gene is controlled by five Interferon-Stimulated Response Elements (twINNE cell line) was used. It is important to note that the twINNE cell line is the same as the above mentioned STING-37 cell line but with constitutively expressed nanoluciferase. First, supernatants of R848-stimulated PBMCs (see part B, section 2) above) were harvested after 24 h of stimulation and frozen at −20° C. for storage. Then, supernatants were dispensed in culture wells of a 96-well plate containing 35.103 twINNE cells per well in Dulbecco's Modified Eagle's Medium supplemented with 10% Foetal Bovine Serum, 100 U/mL Penicillin and 100 μg/mL Streptomycin (1% Pen-Strep) and 1 mM glutamine (Sigma-Aldrich, MO, USA) at 37° C./5% […]. After 24 h of culture, luciferase activity was determined by adding 60 μL of Bright-Go reagents (Promega, Wisconsin, USA) to culture wells and measuring bioluminescence with EnSpire Multimode Plate Reader (PerkinElmer, Massachusetts, USA). When stated, for IC50 calculation, dose-response curves fitted using the nonlin fit (variable slope) analysis in GraphPad Prism software (GraphPad Software, California, USA).
`CCCCC1CN=C(SCC2=CSC3=NC(Cc4ccccc4)CN23)N1` (stereo not drawn) [Example 51, 6-benzyl-3-(((5-butyl-4,5-dihydro-1H-imidazol-2-yl)thio)methyl)-5,6-dihydroinidazo[2,1-b]thiazole dihydrochloride]: the IC50 (in general, the concentration needed to halve the response being measured) is ≤ 10 µM.

Take `CC1(C)CN=C(SCC2=CSC3=NC4CCCCC4CN23)N1` (stereo not drawn) [Example 43, 3-(((5,5-dimethyl-4,5-dihydro-1H-imidazol-2-yl)thio)methyl)-5a,6,7,8,9,9a-hexahydro-5H-thiazolo[2,3-b]quinazoline dihydrochloride]: the IC50 lay in the range of 10 to 31 µM.

`C1=C(CSC2=NCC(Cc3ccccc3)N2)N2C(=N[C@H]3CCCCC32)S1` (mixture of isomers) [Example 55, trans-3-(((5-benzyl-4,5-dihydro-1H-imidazol-2-yl)thio)methyl)-4a,5,6,7,8,8a-hexahydrobenzo[4,5]imidazo[2,1-b]thiazole dihydrochloride]: the IC50 was ≤ 10 µM.

As to `CC1(C)CN2C(=N1)SCC2SC1=NCC(C)(C)N1` (stereo not drawn) [Example 70, 3-((5,5-dimethyl-4,5-dihydro-1H-imidazol-2-yl)thio)-6,6-dimethyl-2,3,5,6-tetrahydroimidazo[2,1-b]thiazole dihydrochloride], the IC50 was ≥ 31 µM.

Turning to `CC1(C)CN=C(SCC2=CSC3=NC(C)(C)CN23)NC1` [Example 28, 3-(((5,5-dimethyl-1,4,5,6-tetrahydropyrimidin-2-yl)thio)methyl)-6,6-dimethyl-5,6-dihydroimidazo[2,1-b]thiazole dihydrochloride], the 50% inhibitory concentration (IC50) is ≥ 31 µM.

For `CC(C)[C@@H]1N=C2SC=C(CSC3=NCC(C)(C)N3)N2[C@H]1C(C)C` (racemic) [Example 62, trans-3-(((5,5-dimethyl-4,5-dihydro-1H-imidazol-2-yl)thio)methyl)-5,6-diisopropyl-5,6-dihydroimidazo[2,1-b]thiazole dihydrochloride], the IC50 fell in the range of 10 to 31 µM.

In the case of `C1=C(CSC2=N[C@@H]3CCCC[C@H]3N2)N2CC(Cc3ccccc3)N=C2S1` (stereo partly drawn) [Example 61, 6-benzyl-3-((((3aR,7aR)-3a,4,5,6,7,7a-hexahydro-1H-benzo[d]imidazol-2-yl)thio)methyl)-5,6-dihydroimidazo[2,1-b]thiazole dihydrochloride], the IC50 was ≤ 10 µM.

As for `C1=C(CSC2=NCCN2)N2CCN=C2S1` [Example 6, 3-(((4,5-dihydro-1H-imidazol-2-yl)thio)methyl)-5,6-dihydroimidazo[2,1-b]thiazole dihydrochloride], the IC50 fell in the range of 10 to 31 µM.

Turning to `C1=C(CSC2=NCCCN2)N2CCN=C2S1` [Example 35, 3-(((1,4,5,6-tetrahydropyrimidin-2-yl)thio)methyl)-5,6-dihydroimidazo[2,1-b]thiazole dihydrochloride], the IC50 was ≥ 31 µM.

With `CC(C)[C@@H]1N=C(SCC2=CSC3=NC(C)(C)CN23)N[C@H]1C(C)C` [Example 58, 3-((((4S,5S)-4,5-diisopropyl-4,5-dihydro-1H-imidazol-2-yl)thio)methyl)-6,6-dimethyl-5,6-dihydroimidazo[2,1-b]thiazole dihydrochloride], the IC50 is ≥ 31 µM.

Take `C1=C(CSC2=NCCCN2)N2CCCCN=C2S1` [Example 37, 3-(((1,4,5,6-tetrahydropyrimidin-2-yl)thio)methyl)-5,6,7,8-tetrahydrothiazolo[3,2-a][1,3]diazepine dihydrochloride]: the IC50 was ≥ 31 µM.

`CC1(C)CN2C(CSC3=NCC(c4ccccc4)N3)=CSC2=N1` (stereo not drawn) [Example 53, 6,6-dimethyl-3-(((4-phenyl-4,5-dihydro-1H-imidazol-2-yl)thio)methyl)-5,6-dihydroimidazo[2,1-b]thiazole dihydrochloride]: the IC50 is ≤ 10 µM.

For the molecule `CCCCC1CN=C(SCC2=CSC3=NCCN23)N1` (stereo not drawn) [Example 30, 3-(((5-butyl-4,5-dihydro-1H-imidazol-2-yl)thio)methyl)-5,6-dihydroimidazo[2,1-b]thiazole dihydrochloride], the IC50 is ≤ 10 µM.

Consider `CC1(C)CN=C(SCC2=CSC3=NCCN23)N1` [Example 21, 3-(((5,5-dimethyl-4,5-dihydro-1H-imidazol-2-yl)thio)methyl)-5,6-dihydroimidazo[2,1-b]thiazole dihydrochloride], for which the IC50 fell in the range of 10 to 31 µM.

Turning to `C1=C(CSC2=NCC(Cc3ccccc3)N2)N2CCCN=C2S1` (stereo not drawn) [Example 48, 3-(((5-benzyl-4,5-dihydro-1H-imidazol-2-yl)thio)methyl)-6,7-dihydro-5H-thiazolo[3,2-a]pyrimidine dihydrochloride], the IC50 is ≤ 10 µM.

As for `CC1(C)CN=C(SCCc2cccc3ncccc23)N1` [Example 41, 5-(2-((5,5-dimethyl-4,5-dihydro-1H-imidazol-2-yl)thio)ethyl)quinoline dihydrochloride], the IC50 is ≥ 31 µM.

For the molecule `CN1CCN=C1SCC1=CSC2=NC(C)(C)CN12` [Example 11, 6,6-dimethyl-3-(((1-methyl-4,5-dihydro-1H-imidazol-2-yl)thio)methyl)-5,6-dihydroimidazo[2,1-b]thiazole dihydrochloride], the IC50 was ≤ 10 µM.

For `CC1(C)CN=C(SCCCc2cccnc2)N1` [Example 31, 3-(3-((5,5-dimethyl-4,5-dihydro-1H-imidazol-2-yl)thio)propyl)pyridine dihydrochloride], the 50% inhibitory concentration (IC50) is ≥ 31 µM.

For `C1=C(CSC2=NCCCN2)N2CCCN=C2S1` [Example 29, 3-(((1,4,5,6-tetrahydropyrimidin-2-yl)thio)methyl)-6,7-dihydro-5H-thiazolo[3,2-a]pyrimidine dihydrochloride], the IC50 is ≥ 31 µM.

With `CC1(C)CN=C(SCCCn2ccnc2)N1` [Example 38, 1-(3-((5,5-dimethyl-4,5-dihydro-1H-imidazol-2-yl)thio)propyl)-1H-imidazole dihydrochloride], the IC50 was ≥ 31 µM.

As to `CC1(C)CN=C(SCC2=CSC3=NCCCN23)N1` [Example 14, 3-(((5,5-dimethyl-4,5-dihydro-1H-imidazol-2-yl)thio)methyl)-6,7-dihydro-5H-thiazolo[3,2-a]pyrimidine dihydrochloride], the IC50 was ≥ 31 µM.

Regarding `CC1(C)CN=C(SCC2=CSC3=NC(c4ccccc4)CN23)N1` (stereo not drawn) [Example 50, 3-(((5,5-dimethyl-4,5-dihydro-1H-imidazol-2-yl)thio)methyl)-6-phenyl-5,6-dihydroimidazo[2,1-b]thiazole dihydrochloride], the IC50 fell in the range of 10 to 31 µM.

With `CC1(C)CN2C(CSC3=N[C@H]4CCCC[C@@H]4N3)=CSC2=N1` [Example 4, 3-((((3aS,7aS)-3a,4,5,6,7,7a-hexahydro-1H-benzo[d]imidazol-2-yl)thio)methyl)-6,6-dimethyl-5,6-dihydroimidazo[2,1-b]thiazole dihydrochloride], the IC50 was ≤ 10 µM.

Consider `CC1(C)CN=C(SCC2=CSC3=NC4(CCCCC4)CN23)N1` [Example 42, 3′-(((5,5-dimethyl-4,5-dihydro-1H-imidazol-2-yl)thio)methyl)-5′H-spiro[cyclohexane-1,6′-imidazo[2,1-b]thiazole] dihydrochloride], for which the IC50 was in the range of 10 to 31 µM.

Turning to `CC1(C)CN=C(SCC2=CSC3=NCCCCN23)N1` [Example 15, 3-(((5,5-dimethyl-4,5-dihydro-1H-imidazol-2-yl)thio)methyl)-5,6,7,8-tetrahydrothiazolo[3,2-a][1,3]diazepine dihydrochloride], the IC50 was ≥ 31 µM.

With `CC1(C)CN=C(SCC2=CSC3=NC(C)(C)C(C)(C)N23)N1` [Example 20, 3-(((5,5-dimethyl-4,5-dihydro-1H-imidazol-2-yl)thio)methyl)-5,5,6,6-tetramethyl-5,6-dihydroimidazo[2,1-b]thiazole dihydrochloride], the IC50 was 10 to 31 µM.

As for `C1=C(CSC2=NCCN2)N2CCCN=C2S1` [Example 26, 3-(((4,5-dihydro-1H-imidazol-2-yl)thio)methyl)-6,7-dihydro-5H-thiazolo[3,2-a]pyrimidine dihydrochloride], the IC50 was ≥ 31 µM.

Take `CC(C)C1CN=C(SCC2=CSC3=NC(C)(C)CN23)N1` (stereo not drawn) [Example 49, 3-(((5-isopropyl-4,5-dihydro-1H-imidazol-2-yl)thio)methyl)-6,6-dimethyl-5,6-dihydroimidazo[2,1-b]thiazole dihydrochloride]: the IC50 is 10 to 31 µM.

With `CC1(C)CN=C(SCc2cccnc2)N1` [Example 32, 3-(((5,5-dimethyl-4,5-dihydro-1H-imidazol-2-yl)thio)methyl)pyridine dihydrochloride], the IC50 is ≥ 31 µM.

For `CC(C)C1CN2C(CSC3=NCC(C)(C)N3)=CSC2=N1` (stereo not drawn) [Example 52, 3-(((5,5-dimethyl-4,5-dihydro-1H-imidazol-2-yl)thio)methyl)-6-isopropyl-5,6-dihydroimidazo[2,1-b]thiazole dihydrochloride], the half-maximal inhibitory concentration (IC50) fell in the range of 10 to 31 µM.
